Assay results: US12240844B2 (Voronoi, Inc., priority 2019, dated 2025)
pIC50: −log10 of the molar value.

Columns and labels:
Assay type in all cases: biochemical
LRRK2 (G2019S) = LRRK2 (G2019S) (Homo sapiens, UniProt Q5S007, G2019S); test: LRRK2 G2019S enzyme inhibition, ADP-Glo kinase assay; parameters: purchased SignalChem L10-12GG
Protocol: (§1) In order to evaluate the inhibitory activity of the compounds according to the present invention on LRRK2, LRRK2 (G2019S), DYRK1, CLK1 and TTK kinases, the following experiment was performed.
Example compounds were reacted with the purified human LRRK2 G2019S (L10-12GG, SignalChem) enzyme to evaluate the enzyme inhibitory ability as follows. The reaction buffer was used as the composition of 40 mM Tris-HCl pH7.4, 20 mM MgCl2, 0.5 mg/ml BSA and 50 μM DTT, and the reaction of all test materials was performed on the reaction buffer. The compound was diluted with 10 mM DMSO stock in 12 steps by a serial dilution method, and the enzyme activity was measured at the final compound concentrations of 50, 10, 2, 0.4, 0.08, 0.016, 0.0032, 0.00064, 0.000128, 0.0000256, 0.00000512 and 0.000001024 μM. In the test, the human LRRK2 G2019S (16 ng) enzyme was reacted with the purified ATP (25 μM) and an enzyme substrate (0.2 μg) at 25° C. for 2 hours, and then the enzyme activity was identified using the in vitro ADP-Glo™ kinase assay (promega). The enzyme activity reaction liquid, an ADP-Glo reaction liquid and an enzyme potency detection solution were reacted in a ratio of 2:2:1, and the degree of inhibition of enzyme activity was measured by Luminescence. The degree of inhibition of enzyme activity according to the treatment concentrations of the respective compounds was calculated based on the fluorescence of the enzyme activity of a solvent control group that was not treated with the compound, where the concentration of each compound to inhibit enzyme activity inhibition by 50% was determined as an IC50 (nM) value and obtained using Prism (Version 5.01, GraphPad) software.
(§2) In the table below, the following designations were used for the evaluation of enzyme inhibitory ability.

[1] = molecular target: T1, human GST-DYRK1A (full length) (Homo sapiens, UniProt Q13627); test: GST-DYRK1A enzyme inhibition, ADP-Glo kinase assay; details: read-out: DYRK1 IC50
T1 construct: purified human GST-DYRK1A (full length, Thermo scientifics) enzyme; GST; purchased Thermo scientifics
Protocol: as §1
(§3) Example compounds were reacted with the purified human GST-DYRK1A (full length, Thermo scientifics) enzyme to evaluate the enzyme inhibitory ability as follows. As the reaction buffer, the composition of 40 mM Tris-HCl pH 7.4, 20 mM MgCl2, 0.5 mg/mL BSA, and 50 uM DTT was used, and the reaction of all test materials was performed on the reaction buffer. During the test, the human GST-DYRK1A (full length, 10 ng) enzyme, the purified ATP (10 uM), and a specific substrate solution were reacted at 25° C. for 1 hour, and then the enzyme activity was identified using the in vitro ADP-Glo™ kinase assay (promega). Luminescence was measured by reacting the enzyme activity reaction solution, an ADP-Glo reaction solution and the enzyme potency detection solution in a ratio of 2:2:1. The degree of inhibition of enzyme activity according to the treatment concentrations of the respective compounds was calculated based on the fluorescence of the enzyme activity of a solvent control group that was not treated with the compound, where the concentration of each compound to inhibit enzyme activity inhibition by 50% was determined as an IC50 (nM) value. The IC50 of each compound was determined in triplicate data sets and obtained using Prism (version 7.01, GraphPad) software.
as §2

human GST-CLK1 (129-end) = molecular target: T2, human GST-CLK1 (129-end) (Homo sapiens, UniProt P49759); test: GST-CLK1 enzyme inhibition, ADP-Glo kinase assay; details: ATP 10 uM
T2 construct: purified human GST-CLK1 (129-end, Signalchem) enzyme; GST; purchased Signalchem
Protocol: as §1
as §3, with “GST-CLK1 (129-end, Signalchem)” for “GST-DYRK1A (full length, Thermo scientifics)”, “GST-CLK1 (129-end, 3” for “GST-DYRK1A (full length, 10”
as §2

Sequence of LRRK2 (G2019S) (Q5S007 970-2527 G2019S limits assumed): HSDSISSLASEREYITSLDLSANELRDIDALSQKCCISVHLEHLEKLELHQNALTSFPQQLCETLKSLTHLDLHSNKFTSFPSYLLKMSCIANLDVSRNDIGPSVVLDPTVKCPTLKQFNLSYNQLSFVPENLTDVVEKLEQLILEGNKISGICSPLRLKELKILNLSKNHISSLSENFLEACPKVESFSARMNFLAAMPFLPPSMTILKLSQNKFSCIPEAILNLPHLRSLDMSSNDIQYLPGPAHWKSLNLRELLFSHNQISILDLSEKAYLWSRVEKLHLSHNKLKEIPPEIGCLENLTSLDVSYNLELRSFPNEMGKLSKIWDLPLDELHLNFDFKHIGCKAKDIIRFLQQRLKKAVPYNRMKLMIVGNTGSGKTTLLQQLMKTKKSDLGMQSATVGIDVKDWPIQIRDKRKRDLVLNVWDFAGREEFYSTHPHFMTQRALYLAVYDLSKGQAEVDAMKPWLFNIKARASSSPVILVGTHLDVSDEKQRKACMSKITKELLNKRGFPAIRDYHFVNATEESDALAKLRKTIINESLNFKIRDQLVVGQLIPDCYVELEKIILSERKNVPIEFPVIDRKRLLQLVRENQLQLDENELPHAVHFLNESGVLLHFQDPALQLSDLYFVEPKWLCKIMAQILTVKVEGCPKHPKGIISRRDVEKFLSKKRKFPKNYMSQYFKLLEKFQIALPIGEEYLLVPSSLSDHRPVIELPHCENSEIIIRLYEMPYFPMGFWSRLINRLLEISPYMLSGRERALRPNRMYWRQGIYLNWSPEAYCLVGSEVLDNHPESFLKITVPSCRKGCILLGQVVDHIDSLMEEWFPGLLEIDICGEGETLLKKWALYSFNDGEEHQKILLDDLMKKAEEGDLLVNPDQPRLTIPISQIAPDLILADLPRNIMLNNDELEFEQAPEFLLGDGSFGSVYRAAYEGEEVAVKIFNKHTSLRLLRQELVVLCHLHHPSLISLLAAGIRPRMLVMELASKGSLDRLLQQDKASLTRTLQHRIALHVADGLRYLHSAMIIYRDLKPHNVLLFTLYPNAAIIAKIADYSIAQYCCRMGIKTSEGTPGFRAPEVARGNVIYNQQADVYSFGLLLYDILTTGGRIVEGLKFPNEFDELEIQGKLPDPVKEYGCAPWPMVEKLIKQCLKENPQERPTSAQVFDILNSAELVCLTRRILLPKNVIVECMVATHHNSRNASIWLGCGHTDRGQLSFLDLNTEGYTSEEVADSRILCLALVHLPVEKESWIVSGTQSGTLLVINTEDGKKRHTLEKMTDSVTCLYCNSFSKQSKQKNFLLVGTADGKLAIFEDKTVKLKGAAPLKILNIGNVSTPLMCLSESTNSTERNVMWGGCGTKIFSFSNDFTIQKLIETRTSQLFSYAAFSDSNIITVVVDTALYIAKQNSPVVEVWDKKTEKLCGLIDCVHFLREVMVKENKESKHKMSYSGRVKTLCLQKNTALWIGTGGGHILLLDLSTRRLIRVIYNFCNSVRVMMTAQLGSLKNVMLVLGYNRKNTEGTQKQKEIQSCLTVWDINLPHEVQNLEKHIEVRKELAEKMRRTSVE
T2 sequence (P49759 129-484 limits assumed): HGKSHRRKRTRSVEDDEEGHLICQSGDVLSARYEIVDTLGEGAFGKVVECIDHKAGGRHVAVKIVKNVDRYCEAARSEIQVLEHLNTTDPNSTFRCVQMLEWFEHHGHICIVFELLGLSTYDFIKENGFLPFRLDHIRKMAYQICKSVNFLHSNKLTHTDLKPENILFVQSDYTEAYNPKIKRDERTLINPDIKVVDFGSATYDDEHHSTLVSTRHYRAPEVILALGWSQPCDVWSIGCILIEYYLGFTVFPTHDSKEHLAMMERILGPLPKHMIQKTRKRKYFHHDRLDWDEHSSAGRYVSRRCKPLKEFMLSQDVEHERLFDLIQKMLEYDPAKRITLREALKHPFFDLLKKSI

| Structure (SMILES) | pIC50 (LRRK2 (G2019S)) | pIC50 [1] | pIC50 (human GST-CLK1 (129-end)) |
| --- | --- | --- | --- |
| COc1cc(S(=O)(=O)N2CCOCC2)ccc1Nc1cc(NCC(C)C)c2cc[nH]c2n1 [Example 14, N^4-isobutyl-N^6-(2-methoxy-4-(morpholinosulfonyl)phenyl)-1H-pyrrolo[2,3-b]pyridine-4,6-diamine] | 6.00 to 6.52 | 6.00 to 6.52 | 6.00 to 6.52 |
| CNc1cc(Nc2ccc(S(=O)(=O)N3CCC(N4CCOCC4)CC3)cc2OC)nc2[nH]ccc12 [Example 18, N^6-(2-methoxy-4-((4-morpholinopiperidin-1-yl)sulfonyl)phenyl)-N^4-methyl-1H-pyrrolo[2,3-b]pyridine-4,6-diamine] | > 7.00 | 6.00 to 6.52 | 6.00 to 6.52 |
| CC(C)CNc1cc(Nc2ccc(C(=O)N3CCOCC3)c3c2OCCO3)nc2[nH]ccc12 [Example 6, (8-((4-(isobutylamino)-1H-pyrrolo[2,3-b]pyridin-6-yl)amino)-2,3-dihydrobenzo [b] [1,4]dioxin-5-yl)(morpholino) methanone] | > 7.00 | 6.00 to 6.52 | 6.00 to 6.52 |
| O=C(c1ccc(Nc2cc(NC3CC3)c3c(Cl)c[nH]c3n2)c2c1OCCO2)N1CCOCC1 [Example 60, (8-((3-chloro-4-(cyclopropylamino)-1H-pyrrolo[2,3-b]pyridin-6-yl)amino)-2,3-dihydrobenzo [b] [1,4]dioxin-5-yl)(morpholino) methanone] | > 7.00 | 6.00 to 6.52 | 6.00 to 6.52 |
| CCNc1cc(Nc2ccc(C(=O)N3CCOCC3)c3c2OCCO3)nc2[nH]cc(Cl)c12 [Example 57, (8-((3-chloro-4-(ethylamino)-1H-pyrrolo[2,3-b]pyridin-6-yl)amino)-2,3-dihydrobenzo[b] [1,4]dioxin-5-yl)(morpholino) methanone] | > 7.00 | 6.00 to 6.52 | 6.00 to 6.52 |
| COc1cc(S(=O)(=O)N2CCOCC2)ccc1Nc1cc(NCCS(C)(=O)=O)c2cc[nH]c2n1 [Example 17, N^6-(2-methoxy-4-(morpholinosulfonyl)phenyl)-N^4-(2-(methylsulfonyl)ethyl)-1H-pyrrolo[2,3-b]pyridine-4,6-diamine] | 6.00 to 6.52 | 6.00 to 6.52 | 6.00 to 6.52 |
| CCNc1cc(Nc2ccc(S(=O)(=O)N3CCC(N4CCOCC4)CC3)cc2OC)nc2[nH]ccc12 [Example 19, N^4-ethyl-N^6-(2-methoxy-4-((4-morpholinopiperidin-1-yl)sulfonyl)phenyl)-1H-pyrrolo[2,3-b]pyridine-4,6-diamine] | > 7.00 | 6.00 to 6.52 | 6.00 to 6.52 |
| CS(=O)(=O)CCNc1cc(Nc2ccc(C(=O)N3CCOCC3)c3c2OCCO3)nc2[nH]cc(Cl)c12 [Example 63, (8-((3-chloro-4-((2-(methylsulfonyl)ethyl)amino)-1H-pyrrolo[2,3-b]pyridin-6-yl)amino)-2,3-dihydrobenzo[b] [1,4]dioxin-5-yl)(morpholino) methanone] | > 7.00 | 6.00 to 6.52 | 6.00 to 6.52 |

The remaining lines, values ahead:

| pIC50 (LRRK2 (G2019S)) | pIC50 [1] | pIC50 (human GST-CLK1 (129-end)) | Structure (SMILES) |
| --- | --- | --- | --- |
| > 7.00 | 6.52 to 7.00 | > 7.00 | C=CCNc1cc(Nc2ccc(C(=O)N3CC[C@@H](N4CCOCC4)C3)c3c2OCC3)nc2[nH]cc(C(F)(F)F)c12 [Example 261, (R)-(7-((4-(allylamino)-3-(trifluoromethyl)-1H-pyrrolo[2,3-b]pyridin-6-yl)amino)-2,3-dihydrobenzofuran-4-yl)(3-morpholinopyrrolidin-1-yl)methanone] |
| > 7.00 | 6.00 to 6.52 | 6.00 to 6.52 | CNc1cc(Nc2ccc(S(C)(=O)=O)cc2OC)nc2[nH]cc(Cl)c12 [Example 80, 3-chloro-N^6-(2-methoxy-4-(methylsulfonyl)phenyl)-N^4-methyl-1H-pyrrolo[2,3-b]pyridine-4,6-diamine] |
| 6.00 to 6.52 | 6.00 to 6.52 | 6.52 to 7.00 | CCNc1cc(Nc2ccc(C(=O)N3CCC4(CC3)CC4)c3c2OCC3)nc2[nH]cc(C(F)(F)F)c12 [Example 256, (7-((4-(ethylamino)-3-(trifluoromethyl)-1H-pyrrolo[2,3-b]pyridin-6-yl)amino)-2,3-dihydrobenzofuran-4-yl)(6-azaspiro[2.5]octan-6-yl)methanone] |
| 6.52 to 7.00 | 6.00 to 6.52 | 6.00 to 6.52 | CCNc1cc(Nc2ccc(S(=O)(=O)N3CCC(N4CCOCC4)CC3)cc2OC)nc2[nH]cc(Cl)c12 [Example 74, 3-chloro-N^4-ethyl-N^6-(2-methoxy-4-((morpholinopiperidin-1-yl)sulfonyl)phenyl)-1H-pyrrolo[2,3-b]pyridine-4,6-diamine] |
| > 7.00 | > 7.00 | > 7.00 | CCNc1cc(Nc2ccc(P3(=O)CCN(Cc4ccc(OC)cc4OC)CC3)cn2)nc2[nH]cc(C(F)(F)F)c12 [Example 267, 1-(2,4-dimethoxybenzy 1)-4-(6-((4-(ethylamino)-3-(trifluoromethyl)-1H-pyrrolo[2,3-b]pyridin-6-yl)amino)pyridin-3-yl)-1,4-azaphosphinane 4-oxide] |
| > 7.00 | 6.00 to 6.52 | 6.00 to 6.52 | CNc1cc(Nc2ccc(S(=O)(=O)N3CCC(N4CCOCC4)CC3)cc2OC)nc2[nH]cc(Cl)c12 [Example 73, 3-chloro-N^6-(2-methoxy-4-((morpholinopiperidin-1-yl)sulfonyl)phenyl)-N^4-methyl-1H-pyrrolo[2,3-b]pyridine-4,6-diamine] |
| > 7.00 | 6.00 to 6.52 | 6.00 to 6.52 | COc1cc(S(=O)(=O)N2CCC(N3CCOCC3)CC2)ccc1Nc1cc(NC2CCCC2)c2c(C#N)c[nH]c2n1 [Example 136, 4-(cyclopentylamino)-6-((2-methoxy-4-((4-morpholinopiperidin-1-yl)sulfonyl)phenyl)amino)-1H-pyrrolo[2,3-b]pyridine-3-carbonitrile] |
| 6.00 to 6.52 | 6.00 to 6.52 | 6.00 to 6.52 | COc1cc(S(=O)(=O)N2CCOCC2)ccc1Nc1cc(NC(C)C)c2c(Cl)c[nH]c2n1 [Example 67, 3-chloro-N^4-isopropyl-N^6-(2-methoxy-4-(morpholinosulfonyl)phenyl)-1H-pyrrolo[2,3-b]pyridine-4,6-diamine] |
| > 7.00 | > 7.00 | > 7.00 | C=CCN1CCN(C(=O)c2ccc(Nc3cc(NCC)c4c(C(F)(F)F)c[nH]c4n3)c3c2CCO3)CC1 [Example 252, (4-allylpiperazin-1-yl)(7-((4-(ethylamino)-3-(trifluoromethyl)-1H-pyrrolo[2,3-b]pyridin-6-yl)amino)-2,3-dihydrobenzofuran-4-yl)methanone] |
| > 7.00 | 6.00 to 6.52 | 6.00 to 6.52 | COc1cc(S(=O)(=O)N2CCC(N3CCOCC3)CC2)ccc1Nc1cc(NC2CC2)c2c(Cl)c[nH]c2n1 [Example 76, 3-chloro-N^4-cyclopropyl-N^6-(2-methoxy-4-((morpholinopiperidin-1-yl)sulfonyl)phenyl)-1H-pyrrolo[2,3-b]pyridine-4,6-diamine] |
